The values that follow come from US7056910B2, “1,4,5.6-tetrahydroimidazo[4,5-d]diazepine derivatives or salts thereof” (Astellas Pharma Inc., priority 2000, dated 2006).

Structures can show the parent of a compound that is named as a salt.

The target of data set [1] is T1, arginine vasopressin V1A receptor (Rattus norvegicus, UniProt P30560).
T1 construct: A rat hepatic membrane specimen was prepared; from tissue; host or cells: rat liver (hepatic membrane specimen)
The data set can be described thus: V1A receptor binding assay ([3H]-vasopressin, rat hepatic membrane specimen). The settings on record: [3H]-vasopressin 0.5 nM, 25° C., 60 minutes, read-out: Binding activity against arginine vasopressin V1A receptor (pki) (converted). As for the experimental part:
(1) V1A Receptor Binding Assay:
A rat hepatic membrane specimen was prepared according to the method of Nakamura, et al. (Journal of Biological Chemistry, Vol. 258, No. 15, pp. 9283–9289, 1983). The hepatic membrane specimen (30 μg) was incubated at 25° C. for 60 minutes in a total amount of 250 μL of a 50 mM TRIS-HCl buffer solution (pH: 7.4) containing 10 mM magnesium chloride and 0.1% bovine serum albumin (BSA), together with [^3H]-Arg-vasopressin (hereinafter simply referred to as “[^3H]-vasopressin”) (0.5 nM, specific activity: 75 Ci/mmol) and a test compound (from 10^−10 to 10^−6 M). Thereafter, liberated [^3H]-vasopressin and receptor-binding [^3H]-vasopressin were separated from each other by using a cell harvester, and the receptor-binding [^3H]-vasopressin was adsorbed on a UniFilter plate, GF/B glass filter. After thoroughly drying, the receptor-binding [^3H]-vasopressin was mixed with a microplate scintillation cocktail, the amount of the receptor-binding [^3H]-vasopressin was measured by using TopCount, and an inhibition rate was calculated according to the following equation. Inhibition rate (%)=[100−(C1−B1)]/(C0−B1)×100 C1: An amount of [^3H]-vasopressin binding to the membrane specimen when treating the receptor membrane specimen in the co-presence of the test compound having a known concentration and [^3H]-vasopressin C0: An amount of [^3H]-vasopressin binding to the membrane specimen when treating the receptor membrane specimen in the presence of [^3H]-vasopressin and in the absence of the test compound B1: An amount of [^3H]-vasopressin binding to the membrane specimen when treating the receptor membrane specimen in the co-presence of [^3H]-vasopressin and an excessive amount of vasopressin (10^−6 M)
According to the foregoing equation, a concentration of the test compound at the inhibition rate of 50% (IC50 value) was calculated, from which was then calculated an affinity of the test compound with the receptor, i.e., a dissociation constant (Ki), according to the following equation. Ki=IC50/(1+[L]/Kd) [L]: A concentration of [^3H]-vasopressin Kd: A dissociation constant of [^3H]-vasopressin against the receptor as determined by the saturation binding assay
A logarithm of the Ki value as calculated according to the foregoing equation was taken, and its negative value was defined as a pKi value.

Data set [2] addresses T2, arginine vasopressin V2 receptor (Rattus norvegicus, UniProt Q00788).
T2 construct: A rat renal medullary membrane specimen was prepared; from tissue; host or cells: rat renal medulla (membrane specimen)
The data set can be described thus: V2 receptor binding assay ([3H]-vasopressin, rat renal medullary membrane specimen). The settings on record: [3H]-vasopressin 0.5 nM, read-out: Binding activity against arginine vasopressin V2 receptor (pKi) (converted). The procedure: (2) V2 Receptor Binding Assay:
A rat renal medullary membrane specimen was prepared according to the method of Cambell, et al. (Journal of Biological Chemistry, Vol. 247, No. 19, pp. 6167–6175, 1972). The rat renal medullary membrane specimen (200 μg) was treated together with [^3H]-vasopressin (0.5 nM, specific activity: 75 Ci/mmol) and a test compound (from 10^−10 to 10^−6 M) in the same manner as in the foregoing V1A receptor binding assay, and the same measurement was carried out to determine a pKi value.

Data set [3] concerns the target drug metabolizing enzyme CYP3A4 (Homo sapiens, UniProt P08684). The data set can be described thus: Cytochrome P450 (3A4) inhibition assay (BFC substrate, fluorescence). The format is in vitro ADME. The settings on record: BFC 5×10^−5 M substrate, 37° C., 30 minutes; read-out: Inhibition activity against drug metabolizing enzyme CYP3A4 (IC50/μM). The procedure:
(3) Cytochrome P450 (3A4) Inhibition Assay:
An assay was carried out according to the method of Crespi, et al. (Analytical Biochemistry, 248, 188–190, 1997). Using a 96-well plate, BFC (5×10^−5 M) as a substrate, a test compound (from 9.1×10^−8 to 2×10^−5 M), and an enzyme (10^−8 M) were incubated at 37° C. for 30 minutes in a total amount of 100 μL of a 20 mM phosphoric acid buffer solution (pH: 7.4) containing 1.3 mM NADP+, 3.3 mM glucose-6-pharpahte, 3.3 mM magnesium chloride, and 0.4 Units/mL glucose-6-phosphate dehydrogenase. Thereafter, a 100 mM TRIS buffer solution containing 80% acetonitrile was added to stop the reaction, and a fluorescent intensity (excitation wavelength: 409 nm, fluorescent wavelength: 530 nm) was measured by a fluorescent plate reader. An inhibition rate was calculated according to the following equation, and a concentration of the test compound at the inhibition rate of 50% (IC50 value) was determined. Inhibition rate (%)=[100−(C1−B1)]/(C0−B1)×100 C1: A fluorescent intensity in the presence of the test compound having a known concentration, enzyme and the substrate C0: A fluorescent intensity in the presence of enzyme and the substrate and in the absence of the test compound B1: A fluorescent intensity of the blank well

T1 sequence (P30560 whole entry): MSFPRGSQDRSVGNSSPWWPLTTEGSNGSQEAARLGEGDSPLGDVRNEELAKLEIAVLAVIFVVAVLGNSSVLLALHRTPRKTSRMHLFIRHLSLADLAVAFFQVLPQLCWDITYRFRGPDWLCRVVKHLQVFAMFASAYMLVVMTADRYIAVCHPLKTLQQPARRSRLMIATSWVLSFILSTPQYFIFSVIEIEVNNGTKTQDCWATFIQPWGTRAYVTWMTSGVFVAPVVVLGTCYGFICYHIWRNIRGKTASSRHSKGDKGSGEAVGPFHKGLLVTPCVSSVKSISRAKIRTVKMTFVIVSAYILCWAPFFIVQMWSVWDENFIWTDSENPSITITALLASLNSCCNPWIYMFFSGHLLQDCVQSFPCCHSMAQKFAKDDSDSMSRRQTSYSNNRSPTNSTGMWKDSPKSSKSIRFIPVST
T2 sequence (Q00788 whole entry): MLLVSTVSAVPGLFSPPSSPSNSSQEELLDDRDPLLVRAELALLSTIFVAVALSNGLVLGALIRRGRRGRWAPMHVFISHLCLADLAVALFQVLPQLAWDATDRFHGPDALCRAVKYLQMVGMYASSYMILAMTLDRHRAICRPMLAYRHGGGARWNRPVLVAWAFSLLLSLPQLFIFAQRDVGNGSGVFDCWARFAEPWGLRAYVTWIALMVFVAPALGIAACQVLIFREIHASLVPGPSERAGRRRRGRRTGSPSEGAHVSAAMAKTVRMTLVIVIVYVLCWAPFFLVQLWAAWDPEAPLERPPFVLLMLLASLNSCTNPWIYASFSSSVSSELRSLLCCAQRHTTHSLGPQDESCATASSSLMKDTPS
Chain of drug metabolizing enzyme CYP3A4 (P08684 whole entry): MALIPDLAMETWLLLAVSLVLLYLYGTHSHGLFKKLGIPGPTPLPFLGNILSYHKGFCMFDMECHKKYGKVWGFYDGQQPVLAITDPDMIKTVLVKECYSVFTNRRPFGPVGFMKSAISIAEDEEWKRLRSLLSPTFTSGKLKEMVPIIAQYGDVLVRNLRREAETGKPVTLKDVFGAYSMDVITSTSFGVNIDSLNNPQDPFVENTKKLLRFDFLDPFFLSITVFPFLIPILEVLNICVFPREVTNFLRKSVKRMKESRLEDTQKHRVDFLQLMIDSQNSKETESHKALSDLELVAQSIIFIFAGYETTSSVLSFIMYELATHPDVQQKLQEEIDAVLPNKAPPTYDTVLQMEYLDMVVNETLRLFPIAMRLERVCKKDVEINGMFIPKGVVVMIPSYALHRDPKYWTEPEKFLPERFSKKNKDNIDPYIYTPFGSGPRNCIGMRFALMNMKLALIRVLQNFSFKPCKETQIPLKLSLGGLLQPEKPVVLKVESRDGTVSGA

`O=C(Nc1ccc(C(=O)N2CCc3nc(Cc4ccccc4)[nH]c3-c3ccccc32)cc1)c1ccccc1-c1ccccc1` [Control compound 1, N-[4-(2-Benzyl-1,4,5,6-tetrahydroimidazo[4 5-d] [1]benzazepine-6-carbonyl)phenyl]biphenyl-2-carboxamide hydrochloride, reference compound]: the results for the Ki in data set [1] and in data set [2] were 7.76 nM and 8.51 nM, respectively. For the same compound, the IC50 in data set [3] was found to be 0.21 µM.
In the same order, the values of `O=C(Nc1ccc(C(=O)N2CCc3nc(C4CC4)[nH]c3-c3ccccc32)cc1)c1ccccc1-c1ccccc1` [Control compound 2, N-[4(2-Cyclopropyl-1,4,5,6-tetrahydroimidazo[4,5-d] [1]benzazepine-6-carbonyl)phenyl]biphenyl-2-carboxamide hydrochloride, reference compound] are 1.23 nM, 1.05 nM and 0.43 µM.
In the same order, the values of `O=C(Nc1ccc(C(=O)N2CCc3nc(-c4ccccn4)[nH]c3-c3ccccc32)cc1)c1ccccc1-c1ccccc1` [Example 1, N-{4-[2-(2-Pyridyl)-1,4,5,6-tetrahydroimidazo[4,5-d][1]benzazepine-6-carbonyl]phenyl}biphenyl-2-carboxamide hydrochloride] are 2.82 nM, 6.03 nM and 7.82 µM.
One may read the melting point as the temperature, or range, at which the solid turns liquid. The compound `O=C(Nc1ccc(C(=O)N2CCc3nc(-c4ccccn4)[nH]c3-c3ccccc32)cc1)c1ccccc1-c1ccccc1` [Example 6, N-{4-[2-(2-Pyridyl)-1,4,5,6-tetrahydroimidazo[4,5-d][1]benzazepine-6-carbonyl]phenyl}biphenyl-2-carboxamide] gave a melting point of 240 to 242 °C.
With `O=C(Nc1ccc(C(=O)N2CCc3nc(-c4ccccn4)[nH]c3-c3ccccc32)cc1)c1ccccc1-c1ccccc1F` [Example 9, 2′-fluoro-N-{4-[2-(2-pyridyl)-1,4,5,6-tetrahydroimidazo[4,5-d][1]benzazepine-6-carbonyl]phenyl}biphenyl-2-carboxamide], the Ki is 3.8 nM in data set [1] and 10.5 nM in data set [2]. Moreover, the IC50 in data set [3] came to 2.4 µM.
With `O=C(Nc1ccc(C(=O)N2CCc3nc(-c4ccccn4)[nH]c3-c3ccccc32)nc1)c1ccccc1-c1ccccc1` [Example 11, N-{6-[2-(2-pyridyl)-1,4,5,6-tetrahydroimidazo[4,5-d][1]benzazepine-6-carbonyl]-3-pyridyl}biphenyl-2-carboxamide], the Ki in data set [1] is 1.95 nM; in data set [2], 12.3 nM. For the same compound, the IC50 in data set [3] stood at 2 µM.
In the same order, the values of `O=C(Nc1ccc(C(=O)N2CCc3nc(-c4ccccn4)[nH]c3-c3ccccc32)cc1O)c1ccccc1-c1ccccc1` [Example 12, N-{2-Hydroxy-4-[2-(2-pyridyl)-1,4,5,6-tetrahydroimidazo[4,5-d][1]-benzazepine-6-carbonyl]phenyl}biphenyl-2-carboxamide hydrochloride] are 7.59 nM, 28.8 nM and 5.9 µM.
